In patent US4356183A, “Antihypertensive 4-thiazolidinecarboxylic acids (pyridyl derivatives)” (Santen Pharmaceutical Co., Ltd., priority 1978, dated 1982) one finds IC50 data, which are given here for two compounds.

For this experiment, the system named is contractile response of isolated guinea pig ileum to angiotensin I. Description: Inhibition of contractile response of isolated guinea pig ileum to angiotensin I. Format: cell-based. The settings on record: Cavia porcellus, angiotensin I 0.1 μg/ml; compound added 5 min before; 30° C.; read-out: Angiotensin I IC50 (50% inhibition of angiotensin I activity inducing the contraction of guinea pig ileum).

As to `C[C@H](CS)C(=O)N1C(c2ccccc2O)SC[C@H]1C(=O)O` (some centres unmarked) [Compound 50], the IC50 (in general, the concentration at which inhibition is half-maximal) was 56 nM. Turning to `COc1ccc(C2SC[C@@H](C(=O)O)N2C(=O)[C@H](C)CS)c(O)c1` (some centres unmarked) [Compound 77], the concentration for half-maximal inhibition (IC50) is 120 nM.
